Our source for the activity and inhibition values is PMC6691788, “Design and synthesis of phthalazine-based compounds as potent anticancer agents with potential antiangiogenic activity via VEGFR-2 inhibition” (Journal of Enzyme Inhibition and Medicinal Chemistry, 2019).

Assay [1] relates to MDA-MB-435. In words: NCI 60 cell panel SRB screen. In kind it is cell-based. To be noted: Homo sapiens, MDA-MB-435, read-out: percent cell growth promotion.
Assay [2] concerns NCI-H23. Nature of the assay: NCI 60 cell panel SRB screen. In kind it is cell-based. The settings on record: Homo sapiens; NCI-H23, single dose 10 μM; read-out: percent cell growth promotion.
Assay [3] has as its system NCI/ADR-RES. Nature of the assay: NCI 60 cell panel SRB screen. The class given is cell-based. The settings on record: Homo sapiens, single dose 10 μM, read-out: percent cell growth promotion.
In assay [4] the test system is HOP-92. Nature of the assay: NCI 60 cell panel SRB screen. The class given is cell-based. The settings on record: Homo sapiens; HOP-92, single dose 10 μM; read-out: percent cell growth promotion.
The test system of assay [5] is UO-31. Nature of the assay: NCI 60 cell panel SRB screen. To be noted: Homo sapiens; UO-31, single dose 10 μM; read-out: percent cell growth promotion. In kind it is cell-based.
For assay [6], the system named is U251. In words: NCI 60 cell panel SRB screen. The settings on record: Homo sapiens, U-251; U251, single dose 10 μM; read-out: percent cell growth promotion. The class given is cell-based.
The subject of assay [7] is SK-OV-3. Nature of the assay: NCI 60 cell panel SRB screen. The class given is cell-based. To be noted: Homo sapiens; SK-OV-3, single dose 10 μM; read-out: percent cell growth promotion.
Assay [8] concerns ACHN. In words: NCI 60 cell panel SRB screen. The class given is cell-based. To be noted: Homo sapiens, single dose 10 μM, read-out: percent cell growth promotion.
For assay [9], the system named is SF-268. Nature of the assay: NCI 60 cell panel SRB screen. The class given is cell-based. The settings on record: Homo sapiens; SF-268, single dose 10 μM; read-out: percent cell growth promotion.
In assay [10] the test system is SN12C. Nature of the assay: NCI 60 cell panel SRB screen. In kind it is cell-based. To be noted: Homo sapiens, single dose 10 μM, read-out: percent cell growth promotion.
The test system of assay [11] is MCF7. Nature of the assay: NCI 60 cell panel SRB screen. The class given is cell-based. The settings on record: Homo sapiens, MCF7, read-out: percent cell growth promotion.
The subject of assay [12] is RPMI-8226. In words: NCI 60 cell panel SRB screen. The class given is cell-based. To be noted: Homo sapiens; RPMI-8226, single dose 10 μM; read-out: percent cell growth promotion.
In assay [13] the test system is UACC-257. Nature of the assay: NCI 60 cell panel SRB screen. The class given is cell-based. To be noted: Homo sapiens, UACC-257, read-out: percent cell growth promotion.
For assay [14], the system named is A549/ATCC. Nature of the assay: NCI 60 cell panel SRB screen. In kind it is cell-based. To be noted: Homo sapiens, single dose 10 μM, read-out: percent cell growth promotion.
Assay [15] deals with T1, VEGFR-2 tyrosine kinase (Homo sapiens, UniProt P35968).
T1 construct: purchased BPS Bioscience 40301
Nature of the assay: In vitro VEGFR-2 tyrosine kinase assay (BPS Bioscience). The class given is biochemical. To be noted: read-out: VEGFR-2 % inhibition; 10 μM concentration. The essentials: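 For IC50, ADP formation after a 30-min 30 °C reaction was detected by ADP-Glo luminescence in duplicate, blank-subtracted and fitted as log inhibitor versus normalised response. The 10 µM single-dose test instead measured remaining ATP (Kinase-Glo Plus) after 40 min at 30 °C with poly(Glu,Tyr) substrate, 10 μM ATP, pH 7.4, 1% DMSO.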

For assay [16], the system named is SF-295. Nature of the assay: NCI 60 cell panel SRB screen. The class given is cell-based. The settings on record: Homo sapiens; SF-295, single dose 10 μM; read-out: percent cell growth promotion.
The test system of assay [17] is NCI-H322M. Nature of the assay: NCI 60 cell panel SRB screen. In kind it is cell-based. The settings on record: Homo sapiens, single dose 10 μM, read-out: percent cell growth promotion.
The subject of assay [18] is K-562. In words: NCI 60 cell panel SRB screen. To be noted: Homo sapiens, K562; K-562, single dose 10 μM; read-out: percent cell growth promotion. The class given is cell-based.
The subject of assay [19] is MOLT-4. In words: NCI 60 cell panel SRB screen. In kind it is cell-based. The settings on record: Homo sapiens; MOLT-4, single dose 10 μM; read-out: percent cell growth promotion.
For assay [20], the system named is NCI-H522. In words: NCI 60 cell panel SRB screen. The settings on record: Homo sapiens; NCI-H522, single dose 10 μM; read-out: percent cell growth promotion. The class given is cell-based.

T1 sequence (P35968 20-1356): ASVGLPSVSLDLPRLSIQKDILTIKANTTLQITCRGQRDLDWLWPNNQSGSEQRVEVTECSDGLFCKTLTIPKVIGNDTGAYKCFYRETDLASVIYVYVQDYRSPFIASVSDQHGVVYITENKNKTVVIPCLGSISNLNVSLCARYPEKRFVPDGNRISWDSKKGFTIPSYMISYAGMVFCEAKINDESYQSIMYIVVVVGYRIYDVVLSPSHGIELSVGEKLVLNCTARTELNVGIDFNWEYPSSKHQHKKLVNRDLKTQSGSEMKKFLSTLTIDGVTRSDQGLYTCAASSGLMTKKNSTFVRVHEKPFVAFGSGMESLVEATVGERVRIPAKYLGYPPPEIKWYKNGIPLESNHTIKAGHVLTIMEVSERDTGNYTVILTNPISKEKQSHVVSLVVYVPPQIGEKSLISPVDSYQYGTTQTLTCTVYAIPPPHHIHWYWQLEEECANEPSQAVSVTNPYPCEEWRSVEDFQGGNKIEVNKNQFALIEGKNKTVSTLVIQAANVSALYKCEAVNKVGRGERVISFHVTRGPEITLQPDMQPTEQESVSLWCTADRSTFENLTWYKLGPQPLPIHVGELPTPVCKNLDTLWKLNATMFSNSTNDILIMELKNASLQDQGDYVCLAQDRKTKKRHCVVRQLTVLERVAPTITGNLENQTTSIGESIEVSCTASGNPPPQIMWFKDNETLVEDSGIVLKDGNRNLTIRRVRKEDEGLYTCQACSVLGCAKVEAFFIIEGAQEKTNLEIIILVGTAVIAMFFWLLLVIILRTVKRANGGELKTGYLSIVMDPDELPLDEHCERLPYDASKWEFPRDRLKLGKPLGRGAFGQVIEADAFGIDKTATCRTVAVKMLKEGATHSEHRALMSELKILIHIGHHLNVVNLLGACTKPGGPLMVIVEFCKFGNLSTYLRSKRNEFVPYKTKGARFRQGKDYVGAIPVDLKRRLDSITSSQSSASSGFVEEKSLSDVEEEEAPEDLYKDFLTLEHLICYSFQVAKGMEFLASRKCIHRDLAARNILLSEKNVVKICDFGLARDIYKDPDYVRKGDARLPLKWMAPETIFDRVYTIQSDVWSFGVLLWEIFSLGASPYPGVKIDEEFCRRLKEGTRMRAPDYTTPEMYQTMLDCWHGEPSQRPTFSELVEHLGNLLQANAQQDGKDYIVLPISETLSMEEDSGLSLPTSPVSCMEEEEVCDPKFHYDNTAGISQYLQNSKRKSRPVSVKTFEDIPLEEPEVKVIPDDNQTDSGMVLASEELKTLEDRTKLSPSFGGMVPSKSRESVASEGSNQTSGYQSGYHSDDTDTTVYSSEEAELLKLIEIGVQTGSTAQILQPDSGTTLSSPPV

The term inhibition denotes how much of the control response was suppressed. Consider `Cc1nnc(Oc2ccc(NC(=O)Nc3ccc(Cl)cc3)cc2)c2ccccc12` [Compound 7e, 1–(4-Chlorophenyl)-3–(4-(4-methylphthalazin-1-yloxy)phenyl)urea], for which the activity at 10 µM was found to be 79.2% in [1]; 84.9% in assay [2]; 72.8% in [3]; 93.5% in [4]; 51.4% in assay [5]; 60% in [6]. For the same compound, the activity at 10 µM came to 69.5% in assay [7]; 80.7% in [8]; 70.5% in assay [9]; 79.1% in assay [10]; 72.7% in assay [11]; 55.6% in assay [12]. In addition, the activity at 10 µM in assay [13] is 83.9%; in assay [14] it was 61.5%; in assay [16] it was 91.8%; in [17], 82.4%; in assay [18] it was 61.1%; in assay [19], 36.1%. In addition, the activity at 10 µM in [20] is 63.8%. The inhibition at 10 µM in assay [15] came out at 14%.

For `Cc1nnc(Nc2ccc(NC(=O)c3ccc(Cl)cc3)cc2)c2ccccc12` [Compound 5d, 4-Chloro-N-(4–(4-methylphthalazin-1-ylamino)phenyl)benzamide], the activity at 10 µM amounted to 102% in assay [1]; 95% in [2]; 96% in [3]; 55.4% in [4]; 57.8% in [5]; 81% in assay [6]. Further, the activity at 10 µM in assay [7] was determined as 83.5%; in assay [8] it was 111%; in [9], 90%; in assay [10], 91%; in assay [11], 84.5%; in assay [12] it was 89.3%. Further, the activity at 10 µM was determined as 97.4% in assay [13]; 97.9% in assay [14]; 105% in [16]; 112% in assay [17]; 101% in assay [18]; 83.5% in [19]. In addition, in assay [20], the activity at 10 µM is 94.7%. The inhibition at 10 µM in [15] came out at 15%.

As to `O=C(Nc1ccc(Nc2nncc3ccccc23)cc1)c1ccc(Cl)cc1` [Compound 5b, 4-Chloro-N-(4-(phthalazin-1-ylamino)phenyl)benzamide], the activity at 10 µM in [1] came to 103%; in assay [2], 98.5%; in [3] it was 103%; in [4] it was 97.5%; in assay [5], 78.6%; in assay [6], 99.5%. The activity at 10 µM in [7] is 87.3%; in assay [8], 112%; in assay [9] it was 98%; in [10], 100%; in [11], 93%; in [12] it was 104%. Besides, the activity at 10 µM in assay [13] amounted to 93%; in assay [14] it was 101%; in assay [16], 102%; in assay [17], 109%; in assay [18], 102%; in [19], 97.3%. The activity at 10 µM in assay [20] amounted to 96.8%. In addition, the inhibition at 10 µM in assay [15] was found to be 8%.

Turning to `Cc1nnc(N2CCN(c3ccccc3)CC2)c2ccccc12` [Compound 8g, 1-Methyl-4–(4-phenylpiperazin-1-yl)phthalazine], the activity at 10 µM worked out at 99.5% in assay [1]; 103% in assay [2]; 107% in [3]; 95.9% in assay [4]; 108% in assay [5]; 96.7% in [6]. Besides, the activity at 10 µM turned out to be 96.5% in assay [7]; 100% in assay [8]; 108% in [9]; 100% in assay [10]; 96.7% in assay [11]; 104% in assay [12]. Moreover, the activity at 10 µM came to 93% in assay [13]; 99.3% in [14]; 96% in assay [16]; 112% in assay [17]; 116% in [18]; 110% in assay [19]. Moreover, in assay [20], the activity at 10 µM came out at 94.5%. Also, in [15], the inhibition at 10 µM was 13%.

For the compound `CCOC(=O)N1CCN(c2nncc3ccccc23)CC1` [Compound 8a, Ethyl 4-(phthalazin-1-yl)piperazine-1-carboxylate], the activity at 10 µM in [1] was found to be 105%; in [2] it was 105%; in assay [3], 102%; in assay [4] it was 104%; in assay [5] it was 91.3%; in assay [6], 99.3%. In addition, the activity at 10 µM in assay [7] is 105%; in assay [8], 115%; in assay [9] it was 104%; in [10], 110%; in [11], 103%; in assay [12] it was 101%. The activity at 10 µM in [13] is 95.8%; in assay [14], 99.6%; in assay [16], 102%; in assay [17], 113%; in assay [18], 110%; in assay [19], 98.6%. For the same compound, in [20], the activity at 10 µM was 99.8%. Further, the inhibition at 10 µM in assay [15] is 13%.
